Laboratory results from ChEMBL document CHEMBL3991601, “The target landscape of clinical kinase drugs” (Science, 2017).
The source made the active and inactive calls.

Key:
[1] = target: Cyclin-dependent kinase 2 (Homo sapiens, UniProt P24941)
Myosin-14 = Myosin-14 (Homo sapiens, UniProt Q7Z406)
[2] = target: Casein kinase I isoform epsilon (Homo sapiens, UniProt P49674)
[3] = target: Serine/threonine-protein kinase MRCK gamma (Homo sapiens, UniProt Q6DT37)
[4] = target: Casein kinase I isoform gamma-1 (Homo sapiens, UniProt Q9HCP0)
[5] = target: T1, Probable ATP-dependent RNA helicase DDX6 (Homo sapiens, UniProt P26196)
T1 sequence (P26196 whole entry): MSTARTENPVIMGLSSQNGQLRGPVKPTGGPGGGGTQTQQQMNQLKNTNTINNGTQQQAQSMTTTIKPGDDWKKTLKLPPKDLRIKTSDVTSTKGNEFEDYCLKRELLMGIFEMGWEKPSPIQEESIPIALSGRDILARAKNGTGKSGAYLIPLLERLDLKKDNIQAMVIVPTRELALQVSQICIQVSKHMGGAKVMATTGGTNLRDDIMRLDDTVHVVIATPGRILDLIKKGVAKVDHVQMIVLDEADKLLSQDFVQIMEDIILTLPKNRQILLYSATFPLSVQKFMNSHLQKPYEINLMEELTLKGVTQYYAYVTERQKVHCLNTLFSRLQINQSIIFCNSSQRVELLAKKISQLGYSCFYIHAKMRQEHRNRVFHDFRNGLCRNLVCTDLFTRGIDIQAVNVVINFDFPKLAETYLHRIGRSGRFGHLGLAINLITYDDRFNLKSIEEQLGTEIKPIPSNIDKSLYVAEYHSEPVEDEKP

[6] = target: T2, Cytochrome c1, heme protein, mitochondrial (Homo sapiens, UniProt P08574)
T2 sequence (P08574 whole entry): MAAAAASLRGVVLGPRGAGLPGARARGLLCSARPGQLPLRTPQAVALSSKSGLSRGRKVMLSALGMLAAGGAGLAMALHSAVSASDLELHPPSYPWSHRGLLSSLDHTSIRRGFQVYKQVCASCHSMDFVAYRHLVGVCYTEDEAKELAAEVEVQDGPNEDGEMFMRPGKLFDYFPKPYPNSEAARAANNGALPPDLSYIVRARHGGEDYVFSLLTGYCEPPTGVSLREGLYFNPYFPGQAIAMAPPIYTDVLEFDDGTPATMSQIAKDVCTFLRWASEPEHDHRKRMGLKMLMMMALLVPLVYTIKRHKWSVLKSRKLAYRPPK

[7] = target: T3, Ribosyldihydronicotinamide dehydrogenase [quinone] (Homo sapiens, UniProt P16083)
T3 sequence (P16083 whole entry): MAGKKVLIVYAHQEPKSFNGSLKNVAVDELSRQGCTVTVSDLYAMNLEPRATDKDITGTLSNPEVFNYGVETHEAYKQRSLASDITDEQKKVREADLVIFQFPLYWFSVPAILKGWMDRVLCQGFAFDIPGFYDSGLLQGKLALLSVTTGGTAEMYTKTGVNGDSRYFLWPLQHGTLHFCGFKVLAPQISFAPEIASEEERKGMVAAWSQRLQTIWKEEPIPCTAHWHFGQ

[8] = target: Cyclin-dependent kinase 6 (Homo sapiens, UniProt Q00534)
Adenosine kinase = Adenosine kinase (Homo sapiens, UniProt P55263)
LIM domain kinase 1 = LIM domain kinase 1 (Homo sapiens, UniProt P53667)
Rab-like protein 3 = target: T4, Rab-like protein 3 (Homo sapiens, UniProt Q5HYI8)
T4 sequence (Q5HYI8 whole entry): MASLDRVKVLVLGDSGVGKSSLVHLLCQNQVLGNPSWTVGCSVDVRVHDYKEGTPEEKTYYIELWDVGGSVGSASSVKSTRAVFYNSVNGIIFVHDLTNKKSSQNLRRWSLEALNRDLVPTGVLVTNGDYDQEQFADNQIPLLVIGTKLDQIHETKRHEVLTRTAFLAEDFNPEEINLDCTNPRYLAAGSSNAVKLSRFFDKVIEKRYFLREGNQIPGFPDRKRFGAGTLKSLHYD

[9] = target: Casein kinase I isoform alpha (Homo sapiens, UniProt P48729)
[10] = target: Ribosomal protein S6 kinase alpha-4 (Homo sapiens, UniProt O75676)
[11] = target: T5, Long-chain-fatty-acid--CoA ligase 5 (Homo sapiens, UniProt Q9ULC5)
T5 sequence (Q9ULC5 whole entry): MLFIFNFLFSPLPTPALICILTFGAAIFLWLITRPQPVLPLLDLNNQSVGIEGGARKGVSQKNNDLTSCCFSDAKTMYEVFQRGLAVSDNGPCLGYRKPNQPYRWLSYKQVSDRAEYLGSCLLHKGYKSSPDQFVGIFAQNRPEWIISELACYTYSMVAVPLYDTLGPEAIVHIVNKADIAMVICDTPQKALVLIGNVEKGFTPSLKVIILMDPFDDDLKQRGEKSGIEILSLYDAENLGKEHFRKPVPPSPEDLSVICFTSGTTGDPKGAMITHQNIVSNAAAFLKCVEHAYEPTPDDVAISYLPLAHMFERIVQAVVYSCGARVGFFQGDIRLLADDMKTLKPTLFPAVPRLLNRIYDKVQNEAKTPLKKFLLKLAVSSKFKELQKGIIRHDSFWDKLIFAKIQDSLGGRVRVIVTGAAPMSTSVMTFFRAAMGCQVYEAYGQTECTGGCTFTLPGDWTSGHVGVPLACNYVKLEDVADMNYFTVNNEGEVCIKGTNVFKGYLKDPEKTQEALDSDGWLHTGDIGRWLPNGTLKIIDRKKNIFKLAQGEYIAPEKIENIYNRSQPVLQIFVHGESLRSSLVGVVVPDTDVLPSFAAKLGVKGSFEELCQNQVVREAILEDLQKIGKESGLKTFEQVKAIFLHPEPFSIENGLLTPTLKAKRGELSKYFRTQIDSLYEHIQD

dCTP pyrophosphatase 1 = target: T6, dCTP pyrophosphatase 1 (Homo sapiens, UniProt Q9H773)
T6 sequence (Q9H773 whole entry): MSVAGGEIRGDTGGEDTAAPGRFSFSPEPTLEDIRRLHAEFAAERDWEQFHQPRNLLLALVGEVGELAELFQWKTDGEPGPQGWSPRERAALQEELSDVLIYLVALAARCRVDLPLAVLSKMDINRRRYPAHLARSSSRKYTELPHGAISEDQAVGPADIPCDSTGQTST

[12] = target: Putative heat shock protein HSP 90-beta 2 (Homo sapiens, UniProt Q58FF8)
[13] = target: Protein-tyrosine kinase 6 (Homo sapiens, UniProt Q13882)
Also: in the data inactive means no Kd found up to 30 µM.

Sequence of Putative heat shock protein HSP 90-beta 2 (Q58FF8 whole entry): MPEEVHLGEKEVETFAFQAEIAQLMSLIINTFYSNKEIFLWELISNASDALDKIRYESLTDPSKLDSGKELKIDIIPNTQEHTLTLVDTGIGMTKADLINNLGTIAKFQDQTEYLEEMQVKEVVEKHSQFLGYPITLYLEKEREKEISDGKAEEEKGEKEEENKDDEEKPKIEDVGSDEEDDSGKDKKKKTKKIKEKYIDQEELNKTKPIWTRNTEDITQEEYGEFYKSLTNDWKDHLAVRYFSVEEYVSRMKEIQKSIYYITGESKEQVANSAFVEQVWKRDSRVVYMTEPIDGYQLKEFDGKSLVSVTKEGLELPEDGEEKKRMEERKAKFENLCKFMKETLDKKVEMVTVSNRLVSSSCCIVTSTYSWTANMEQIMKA
Sequence of Casein kinase I isoform epsilon (P49674 whole entry, canonical isoform): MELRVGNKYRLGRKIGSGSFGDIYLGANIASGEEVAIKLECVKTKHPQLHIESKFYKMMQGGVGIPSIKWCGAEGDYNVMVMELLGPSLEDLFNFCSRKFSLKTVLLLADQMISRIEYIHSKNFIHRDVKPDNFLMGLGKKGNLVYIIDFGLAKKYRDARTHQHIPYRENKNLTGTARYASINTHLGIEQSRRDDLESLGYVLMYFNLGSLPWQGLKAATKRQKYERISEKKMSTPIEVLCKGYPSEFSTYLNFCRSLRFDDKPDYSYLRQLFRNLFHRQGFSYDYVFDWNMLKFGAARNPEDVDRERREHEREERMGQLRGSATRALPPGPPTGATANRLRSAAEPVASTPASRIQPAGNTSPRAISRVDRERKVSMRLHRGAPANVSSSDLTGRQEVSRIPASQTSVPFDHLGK
Sequence of Serine/threonine-protein kinase MRCK gamma (Q6DT37 whole entry, canonical isoform): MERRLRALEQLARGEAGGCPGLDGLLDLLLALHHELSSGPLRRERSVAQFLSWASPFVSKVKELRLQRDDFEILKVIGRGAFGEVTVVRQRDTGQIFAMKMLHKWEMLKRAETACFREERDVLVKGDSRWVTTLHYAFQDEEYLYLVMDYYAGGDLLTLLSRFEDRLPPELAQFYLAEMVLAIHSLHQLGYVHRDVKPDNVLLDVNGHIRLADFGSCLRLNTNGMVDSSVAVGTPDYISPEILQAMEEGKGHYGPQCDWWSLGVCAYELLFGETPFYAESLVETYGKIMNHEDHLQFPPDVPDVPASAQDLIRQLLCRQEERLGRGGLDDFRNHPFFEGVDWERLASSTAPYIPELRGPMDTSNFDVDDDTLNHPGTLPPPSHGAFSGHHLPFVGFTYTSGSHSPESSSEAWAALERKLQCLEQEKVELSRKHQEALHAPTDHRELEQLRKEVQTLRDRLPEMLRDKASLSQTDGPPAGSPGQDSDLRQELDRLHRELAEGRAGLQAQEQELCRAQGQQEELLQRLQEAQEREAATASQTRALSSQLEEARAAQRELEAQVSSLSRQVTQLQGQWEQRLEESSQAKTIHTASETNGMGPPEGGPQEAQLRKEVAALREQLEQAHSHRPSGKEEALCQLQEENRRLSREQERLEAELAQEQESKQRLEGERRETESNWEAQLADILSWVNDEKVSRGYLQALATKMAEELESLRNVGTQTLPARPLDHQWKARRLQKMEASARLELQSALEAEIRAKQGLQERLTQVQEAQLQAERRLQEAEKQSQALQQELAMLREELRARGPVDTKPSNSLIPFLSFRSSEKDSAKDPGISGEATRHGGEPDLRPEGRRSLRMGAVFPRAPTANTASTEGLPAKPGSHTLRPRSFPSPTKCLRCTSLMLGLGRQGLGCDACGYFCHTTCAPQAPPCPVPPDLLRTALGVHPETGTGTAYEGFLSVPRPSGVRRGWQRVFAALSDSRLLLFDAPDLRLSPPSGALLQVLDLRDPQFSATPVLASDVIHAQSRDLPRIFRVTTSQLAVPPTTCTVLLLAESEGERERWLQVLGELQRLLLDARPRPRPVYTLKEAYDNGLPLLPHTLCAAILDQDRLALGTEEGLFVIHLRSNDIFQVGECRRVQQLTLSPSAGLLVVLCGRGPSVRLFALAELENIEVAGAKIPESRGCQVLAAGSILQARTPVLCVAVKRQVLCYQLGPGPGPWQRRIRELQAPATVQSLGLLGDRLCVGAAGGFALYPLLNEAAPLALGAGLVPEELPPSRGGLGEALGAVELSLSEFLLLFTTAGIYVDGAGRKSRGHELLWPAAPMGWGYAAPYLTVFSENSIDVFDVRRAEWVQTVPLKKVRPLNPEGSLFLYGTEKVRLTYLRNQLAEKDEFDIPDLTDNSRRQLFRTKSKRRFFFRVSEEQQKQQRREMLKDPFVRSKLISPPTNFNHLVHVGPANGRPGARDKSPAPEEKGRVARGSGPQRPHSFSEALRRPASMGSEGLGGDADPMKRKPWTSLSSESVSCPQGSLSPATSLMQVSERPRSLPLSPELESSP
Sequence of Ribosomal protein S6 kinase alpha-4 (O75676 whole entry): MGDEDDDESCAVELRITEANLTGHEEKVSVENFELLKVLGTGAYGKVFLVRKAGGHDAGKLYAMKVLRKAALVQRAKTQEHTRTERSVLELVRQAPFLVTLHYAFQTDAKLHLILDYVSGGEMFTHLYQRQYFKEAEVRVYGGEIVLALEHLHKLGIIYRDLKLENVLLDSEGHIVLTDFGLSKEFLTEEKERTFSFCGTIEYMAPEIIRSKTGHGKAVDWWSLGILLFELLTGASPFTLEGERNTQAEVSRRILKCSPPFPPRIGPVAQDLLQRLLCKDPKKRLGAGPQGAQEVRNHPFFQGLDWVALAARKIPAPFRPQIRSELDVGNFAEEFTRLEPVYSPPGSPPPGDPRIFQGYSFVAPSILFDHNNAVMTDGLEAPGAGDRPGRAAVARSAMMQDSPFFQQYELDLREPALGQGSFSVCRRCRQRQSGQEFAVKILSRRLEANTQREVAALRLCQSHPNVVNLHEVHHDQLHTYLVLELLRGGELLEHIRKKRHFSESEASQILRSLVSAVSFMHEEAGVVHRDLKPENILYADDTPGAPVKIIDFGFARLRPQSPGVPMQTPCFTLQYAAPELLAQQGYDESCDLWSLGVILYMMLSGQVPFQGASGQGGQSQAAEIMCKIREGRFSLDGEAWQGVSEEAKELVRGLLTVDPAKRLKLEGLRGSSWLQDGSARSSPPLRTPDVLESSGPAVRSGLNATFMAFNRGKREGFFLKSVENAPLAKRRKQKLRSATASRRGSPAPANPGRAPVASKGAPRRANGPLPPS
Sequence of LIM domain kinase 1 (P53667 whole entry, the tested form may be a part): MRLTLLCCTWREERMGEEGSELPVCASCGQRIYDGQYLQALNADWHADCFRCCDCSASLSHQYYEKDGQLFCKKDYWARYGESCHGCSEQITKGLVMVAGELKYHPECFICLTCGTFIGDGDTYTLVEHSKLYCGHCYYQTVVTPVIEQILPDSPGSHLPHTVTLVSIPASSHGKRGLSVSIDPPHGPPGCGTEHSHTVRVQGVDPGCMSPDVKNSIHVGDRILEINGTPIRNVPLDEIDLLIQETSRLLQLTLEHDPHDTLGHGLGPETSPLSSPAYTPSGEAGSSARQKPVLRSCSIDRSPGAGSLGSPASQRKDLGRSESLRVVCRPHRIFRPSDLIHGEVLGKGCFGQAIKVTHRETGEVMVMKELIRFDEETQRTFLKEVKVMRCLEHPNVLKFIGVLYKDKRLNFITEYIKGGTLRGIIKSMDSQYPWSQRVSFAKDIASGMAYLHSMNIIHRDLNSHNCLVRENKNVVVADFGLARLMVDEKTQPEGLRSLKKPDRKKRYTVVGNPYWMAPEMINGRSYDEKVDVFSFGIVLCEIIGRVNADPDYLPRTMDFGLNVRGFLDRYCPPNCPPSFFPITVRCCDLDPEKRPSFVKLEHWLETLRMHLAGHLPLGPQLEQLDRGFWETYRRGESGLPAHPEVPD
Sequence of Protein-tyrosine kinase 6 (Q13882 whole entry): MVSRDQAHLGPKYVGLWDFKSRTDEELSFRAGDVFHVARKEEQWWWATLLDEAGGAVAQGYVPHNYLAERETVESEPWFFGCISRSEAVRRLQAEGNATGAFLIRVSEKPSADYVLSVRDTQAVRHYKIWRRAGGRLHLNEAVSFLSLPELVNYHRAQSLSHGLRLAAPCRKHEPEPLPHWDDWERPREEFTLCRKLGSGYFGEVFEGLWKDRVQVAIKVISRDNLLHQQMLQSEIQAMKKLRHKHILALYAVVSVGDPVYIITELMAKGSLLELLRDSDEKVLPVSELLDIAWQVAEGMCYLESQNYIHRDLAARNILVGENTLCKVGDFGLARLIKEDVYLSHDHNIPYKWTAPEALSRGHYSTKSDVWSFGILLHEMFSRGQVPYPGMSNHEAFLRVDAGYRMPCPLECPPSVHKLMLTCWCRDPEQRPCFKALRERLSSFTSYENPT
Sequence of Cyclin-dependent kinase 6 (Q00534 whole entry): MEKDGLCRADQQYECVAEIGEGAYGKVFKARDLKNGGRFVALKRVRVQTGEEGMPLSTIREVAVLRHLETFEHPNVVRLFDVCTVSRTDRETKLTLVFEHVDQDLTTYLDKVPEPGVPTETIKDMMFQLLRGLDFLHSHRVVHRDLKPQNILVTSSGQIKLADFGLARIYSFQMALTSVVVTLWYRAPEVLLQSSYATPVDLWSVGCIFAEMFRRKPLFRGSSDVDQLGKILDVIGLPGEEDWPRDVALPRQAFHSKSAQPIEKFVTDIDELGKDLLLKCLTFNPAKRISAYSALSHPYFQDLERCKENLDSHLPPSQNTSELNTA
Sequence of Casein kinase I isoform gamma-1 (Q9HCP0 whole entry, canonical isoform): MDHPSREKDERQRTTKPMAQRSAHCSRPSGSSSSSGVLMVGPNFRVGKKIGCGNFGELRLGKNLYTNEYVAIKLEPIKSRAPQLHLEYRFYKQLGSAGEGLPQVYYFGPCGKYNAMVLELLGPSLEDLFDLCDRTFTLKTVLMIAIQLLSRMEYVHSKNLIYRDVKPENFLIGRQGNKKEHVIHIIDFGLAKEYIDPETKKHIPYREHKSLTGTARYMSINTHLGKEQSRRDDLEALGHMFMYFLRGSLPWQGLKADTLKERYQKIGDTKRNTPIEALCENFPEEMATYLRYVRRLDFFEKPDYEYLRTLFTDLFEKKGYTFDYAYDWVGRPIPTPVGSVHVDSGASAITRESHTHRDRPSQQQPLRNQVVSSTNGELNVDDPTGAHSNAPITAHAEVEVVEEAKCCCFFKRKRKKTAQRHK

Kd [1] | Kd (Myosin-14) | Kd [2] | Kd [3] | Kd [4] | Kd [5] | Kd [6] | Kd [7] | Kd [8] | Kd (Adenosine kinase) | Kd (LIM domain kinase 1) | Kd (Rab-like protein 3) | Kd [9] | Kd [10] | Kd [11] | Kd (dCTP pyrophosphatase 1) | Kd [12] | Kd [13] | Structure (SMILES)
> 30 µM (inactive) | > 30 µM (inactive) | > 30 µM (inactive) | > 30 µM (inactive) | > 30 µM (inactive) | > 30 µM (inactive) | > 30 µM (inactive) | > 30 µM (inactive) | > 30 µM (inactive) | > 30 µM (inactive) | > 30 µM (inactive) | > 30 µM (inactive) | > 30 µM (inactive) | > 30 µM (inactive) | > 30 µM (inactive) | > 30 µM (inactive) | > 30 µM (inactive) | > 30 µM (inactive) | C[C@@H]1COC(Nc2ccc3ncnc(Nc4ccc(OCc5nccs5)c(Cl)c4)c3c2)=N1 [VARLITINIB]
> 30 µM (inactive) | > 30 µM (inactive) | > 30 µM (inactive) | > 30 µM (inactive) | > 30 µM (inactive) | > 30 µM (inactive) | > 30 µM (inactive) | > 30 µM (inactive) | > 30 µM (inactive) | > 30 µM (inactive) | > 30 µM (inactive) | > 30 µM (inactive) | > 30 µM (inactive) | > 30 µM (inactive) | > 30 µM (inactive) | > 30 µM (inactive) | > 30 µM (inactive) | > 30 µM (inactive) | COc1cc2ncnc(Nc3ccc(F)c(Cl)c3)c2cc1NC(=O)/C=C/CN1CCCCC1 [DACOMITINIB ANHYDROUS]
> 30 µM (inactive) | > 30 µM (inactive) | > 30 µM (inactive) | > 30 µM (inactive) | > 30 µM (inactive) | > 30 µM (inactive) | > 30 µM (inactive) | > 30 µM (inactive) | > 30 µM (inactive) | > 30 µM (inactive) | > 30 µM (inactive) | > 30 µM (inactive) | > 30 µM (inactive) | > 30 µM (inactive) | > 30 µM (inactive) | > 30 µM (inactive) | > 30 µM (inactive) | > 30 µM (inactive) | C#Cc1cccc(Nc2ncnc3cc4c(cc23)OCCOCCOCCO4)c1 [ICOTINIB]
> 30 µM (inactive) | > 30 µM (inactive) | > 30 µM (inactive) | > 30 µM (inactive) | > 30 µM (inactive) | > 30 µM (inactive) | > 30 µM (inactive) | > 30 µM (inactive) | > 30 µM (inactive) | > 30 µM (inactive) | > 30 µM (inactive) | > 30 µM (inactive) | > 30 µM (inactive) | > 30 µM (inactive) | > 30 µM (inactive) | > 30 µM (inactive) | > 30 µM (inactive) | > 30 µM (inactive) | COc1ccc2c(OCc3nnc4ccc(-c5ccccc5)nn34)ccnc2c1 [AMG-208]

Structure (SMILES) | Kd [1] | Kd (Myosin-14) | Kd [2] | Kd [3] | Kd [4] | Kd [5] | Kd [6] | Kd [7] | Kd [8] | Kd (Adenosine kinase) | Kd (LIM domain kinase 1) | Kd (Rab-like protein 3) | Kd [9] | Kd [10] | Kd [11] | Kd (dCTP pyrophosphatase 1) | Kd [12] | Kd [13]
COc1cc(F)c(F)c(Nc2ccc(I)cc2F)c1NS(=O)(=O)C1(C[C@H](O)CO)CC1 [REFAMETINIB] | > 30 µM (inactive) | > 30 µM (inactive) | > 30 µM (inactive) | > 30 µM (inactive) | > 30 µM (inactive) | > 30 µM (inactive) | > 30 µM (inactive) | > 30 µM (inactive) | > 30 µM (inactive) | > 30 µM (inactive) | > 30 µM (inactive) | > 30 µM (inactive) | > 30 µM (inactive) | > 30 µM (inactive) | > 30 µM (inactive) | > 30 µM (inactive) | > 30 µM (inactive) | > 30 µM (inactive)
Cc1c(Cn2c(C)nc3c(C(=O)O)cc(N4CCOCC4)cc32)cccc1C(F)(F)F [GSK-2636771] | > 30 µM (inactive) | > 30 µM (inactive) | > 30 µM (inactive) | > 30 µM (inactive) | > 30 µM (inactive) | > 30 µM (inactive) | > 30 µM (inactive) | > 30 µM (inactive) | > 30 µM (inactive) | > 30 µM (inactive) | > 30 µM (inactive) | > 30 µM (inactive) | > 30 µM (inactive) | > 30 µM (inactive) | > 30 µM (inactive) | > 30 µM (inactive) | > 30 µM (inactive) | > 30 µM (inactive)
